Data on 46 compounds can be found in patent US11236086B2, “Substituted pyrrolopyridines as inhibitors of activin receptor-like kinase” (BLUEPRINT MEDICINES CORPORATION, priority 2017, dated 2022).

Some results are limits rather than exact numbers.

One assay deals with T1, human ALK2 R206H (Homo sapiens, UniProt Q04771, R206H).
T1 construct: expressed in transfected cells; host or cells: HEK293 (ATCC CRL1573), lentivirus transduction, blasticidin selection
T1 sequence (Q04771 21-509 R206H): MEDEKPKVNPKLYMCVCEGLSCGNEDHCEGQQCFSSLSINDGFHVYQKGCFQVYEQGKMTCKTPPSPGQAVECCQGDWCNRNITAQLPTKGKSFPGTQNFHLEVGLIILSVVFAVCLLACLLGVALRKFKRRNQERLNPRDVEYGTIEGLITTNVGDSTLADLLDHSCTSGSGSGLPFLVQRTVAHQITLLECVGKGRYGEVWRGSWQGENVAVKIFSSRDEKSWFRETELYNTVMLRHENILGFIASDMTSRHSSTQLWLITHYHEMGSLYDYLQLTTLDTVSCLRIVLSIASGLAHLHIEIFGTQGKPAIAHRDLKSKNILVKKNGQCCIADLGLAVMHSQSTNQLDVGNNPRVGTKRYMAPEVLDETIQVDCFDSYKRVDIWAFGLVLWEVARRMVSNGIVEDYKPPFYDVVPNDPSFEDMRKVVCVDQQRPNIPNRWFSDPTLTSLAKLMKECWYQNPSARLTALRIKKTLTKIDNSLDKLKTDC
Kind of assay: Cell-based ALK2-R206H cell activity assay (Smad1-Ser463/Ser465 phosphorylation by AlphaLISA in HEK293-ALK2-R206H cells). As to conditions: phospho-Smad1 AlphaLISA, read-out: Cell Line (Cell Assay, IC50 class). Summed up: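 IC50 comes from a 10-point curve, scaled between DMSO and 1 μM LDN193189 controls, of lysate phospho-Smad1 (Ser463/465) measured by AlphaLISA. Compounds (top 10 μM or 1 μM, 3-fold steps, duplicates) were given 2-3 h to serum-starved HEK293 cells that stably express FLAG-tagged human ALK2 R206H.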

Assay [1] deals with T2, ALK2R206H (mutant ALK2, N-terminally tagged with GST) (Homo sapiens, UniProt Q04771, R206H).
T2 construct: purchased Carna Bioscience or ThermoFisher 09-148 or PV6232
T2 sequence (Q04771 21-509 R206H): T1 sequence (Q04771 21-509 R206H)
Kind of assay: ALK binding assay (LANTHASCREEN TR-FRET competitive binding, displacement of Kinase Tracer 178). As to conditions: read-out: Binding Assay (IC50 class). Summed up: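 Competitive displacement of Kinase Tracer 178 (50 nM) from N-terminally GST-tagged mutant ALK2 R206H (2-5 nM) by compound, detected by TR-FRET with Eu-anti-GST antibody (4-10 nM). 30 min room temperature incubation, 1% DMSO final; normalized signal fitted to 4-parameter log dose response for IC50.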

On to `CCOC(=O)N1CCN(c2ccnc3[nH]c(-c4cnn(C)c4CC)cc23)CC1` [Compound 100], for which the IC50 on human ALK2 R206H is 100 to 500 nM; in assay [1] it was no more than 10 nM.
The matching figures for `O=C(C1CC1)N1CCN(c2ccnc3[nH]c(-c4ccc(C5(O)CCC5)cc4)cc23)CC1` [Compound 272]: no more than 100 nM and no more than 10 nM.
For `C[C@@H](CF)OC(=O)N1CCN(c2ccnc3[nH]c(-c4cnn(C)c4)cc23)CC1` [Compound 117] the same measures were no more than 100 nM and no more than 10 nM.
For `CC#Cc1c(-c2cnn(C)c2)[nH]c2nccc(N3CCN(C(=O)OCC)CC3)c12` [Compound 132] the same measures were no more than 100 nM and no more than 10 nM.
On to `CN1CCN(c2ccc(-c3cc4c(N5CCN(C(=O)C6CC6)CC5)ccnc4[nH]3)cc2)CC1` [Compound 380], for which the results for the IC50 (at human ALK2 R206H; in assay [1]) were no more than 100 nM and no more than 10 nM, respectively.
The matching figures for `C[C@@H](F)COC(=O)N1CCN(c2ccnc3[nH]c(-c4cnn(C)c4)cc23)CC1` [Compound 118]: 100 to 500 nM and no more than 10 nM.
For `Cn1cc(-c2cc3c(N4CCN(C(=O)OC5CC(F)(F)C5(F)F)CC4)ccnc3[nH]2)cn1` (centres unmarked) [Compound 399] the same measures were 100 to 500 nM and no more than 10 nM.
The matching figures for `CCN1CCC(c2ccc(-c3cc4c(N5CCN(C(=O)C6CC6)CC5)ccnc4[nH]3)cc2)C(F)(F)C1` (centres unmarked) [Compound 460]: no more than 100 nM and no more than 10 nM.
Turning to `O=C(C1CC1)N1CCN(c2ccnc3[nH]c(-c4cnn(Cc5ccccc5)c4)cc23)CC1` [Compound 315], the IC50 on human ALK2 R206H was no more than 100 nM; in assay [1], no more than 10 nM.
As for `CCNC(=O)c1nc(-c2cc3c(N4CCN(C(=O)OC5COC5)CC4)ccnc3[nH]2)cs1` [Compound 415], the figures for the IC50 (on human ALK2 R206H; in assay [1]) were 100 to 500 nM and no more than 10 nM, respectively.
With `Cc1cc(-c2cc3c(N4CCN(C(=O)OC5COC5)CC4)ccnc3[nH]2)sn1` [Compound 171], the IC50 on human ALK2 R206H is 100 to 500 nM; in assay [1], no more than 10 nM.
For `CC(C)n1cc(-c2cc3c(N4CCN(C(=O)C5CC5)CC4)ccnc3[nH]2)cn1` [Compound 65] the same measures were no more than 100 nM and no more than 10 nM.
For `O=C(OC1COC1)N1CCN(c2ccnc3[nH]c(-c4ccc([C@@]5(O)CCOC5)cc4)cc23)CC1` [Compound 428] the same measures were no more than 100 nM and no more than 10 nM.
For `Cc1nc(-c2cc3c(N4CCN(C(=O)[C@H]5C[C@H](C#N)C5)CC4)ccnc3[nH]2)cs1` [Compound 205, (1r,3r)-3-(4-(2-(2-methylthiazol-4-yl)-1H-pyrrolo[2,3-b]pyridin-4-yl)piperazine-1-carbonyl)cyclobutanecarbonitrile] the same measures were no more than 100 nM and no more than 10 nM.
Take `Cc1nc(-c2[nH]c3nccc(N4CCN(C(=O)OCC(F)F)CC4)c3c2C#N)cn1C` [Compound 321]: the results for the IC50 (at human ALK2 R206H; in assay [1]) were no more than 100 nM and no more than 10 nM, respectively.
The matching figures for `CC(C)CC(=O)N1CCN(c2ccnc3[nH]c(-c4cnn(C)c4)cc23)CC1` [Compound 32]: 100 to 500 nM and 10 to 50 nM.
For `Cn1cc(-c2cc3c(N4CCN(C(=O)CC5CCCC5)CC4)ccnc3[nH]2)cn1` [Compound 135] the same measures were 100 to 500 nM and no more than 10 nM.
For the compound `CCOC(=O)N1CCN(c2ccnc3[nH]c(-c4csc(C#N)c4)cc23)CC1` [Compound 86], the IC50 on human ALK2 R206H is no more than 100 nM; in assay [1], no more than 10 nM.
The matching figures for `Cn1cc(-c2[nH]c3nccc(N4CCN(C(=O)O[C@H]5CCC5(F)F)CC4)c3c2C#N)cn1` [Compound 367]: no more than 100 nM and no more than 10 nM.
The matching figures for `NC1(c2ccc(-c3cc4c(N5CCN(C(=O)C6CC6)CC5)ccnc4[nH]3)cc2)CC1` [Compound 183]: no more than 100 nM and no more than 10 nM.
The matching figures for `Cc1csc(-c2cc3c(N4CCN(C(=O)OC5COC5)CC4)ccnc3[nH]2)c1` [Compound 167]: no more than 100 nM and no more than 10 nM.
In the case of `COC(=O)COc1ccc(-c2cc3c(N4CCN(C(=O)C5CC5)CC4)ccnc3[nH]2)cc1` [Compound 348], the IC50 on human ALK2 R206H was greater than 500 nM; in assay [1] it was no more than 10 nM.
For `CCOC(=O)N1CCN(c2ccnc3[nH]c(-c4cnn(C(F)F)c4)c(C#N)c23)CC1` [Compound 258] the same measures were no more than 100 nM and no more than 10 nM.
Turning to `O=C(C1CC1)N1CCN(c2ccnc3[nH]c(-c4ccc(C5CCN(C6COC6)CC5)cc4)cc23)CC1` [Compound 451], the IC50 is no more than 100 nM on human ALK2 R206H and no more than 10 nM in assay [1].
For `Cc1c(-c2cc3c(N4CCN(C(=O)[C@H]5CC[C@H](C#N)CC5)CC4)ccnc3[nH]2)cnn1C` [Compound 334] the same measures were 100 to 500 nM and no more than 10 nM.
The matching figures for `Cn1ncc(-c2cc3c(N4CCN(C(=O)OC5COC5)CC4)ccnc3[nH]2)c1C#N` [Compound 210]: 100 to 500 nM and no more than 10 nM.
Regarding `Cn1cc(-c2cc3c(N4CCN(C(=O)OCCC(F)(F)F)CC4)ccnc3[nH]2)cn1` [Compound 292], the IC50 was 100 to 500 nM at human ALK2 R206H and no more than 10 nM in assay [1].
The matching figures for `Cn1cnc(-c2[nH]c3nccc(N4CCN(C(=O)OCC(F)F)CC4)c3c2C#N)c1` [Compound 257]: no more than 100 nM and no more than 10 nM.
In the case of `Cn1cc(-c2cc3c(N4CCN(C(=O)O[C@H]5CCOC5)CC4)ccnc3[nH]2)cn1` [Compound 150], the figures for the IC50 (at human ALK2 R206H; in assay [1]) were 100 to 500 nM and no more than 10 nM, respectively.
For `Cn1cc(-c2cc3c(N4CCN(C(=O)O[C@@H]5CC(F)(F)C5(F)F)CC4)ccnc3[nH]2)cn1` [Compound 398] the same measures were no more than 100 nM and no more than 10 nM.
Turning to `Cn1cc(-c2[nH]c3nccc(N4CCN(C(=O)O[C@@H]5CCOC5)CC4)c3c2Cl)cn1` [Compound 332], the figures for the IC50 (at human ALK2 R206H; in assay [1]) were 100 to 500 nM and no more than 10 nM, respectively.
For `CCOC(=O)N1CCN(c2ccnc3[nH]c(-c4ccc(C5(OC)CCOCC5)cc4C#N)cc23)CC1` [Compound 455] the same measures were no more than 100 nM and no more than 10 nM.
For `CC#Cc1c(-c2cnn(C)c2)[nH]c2nccc(N3CCN(C(=O)OC4COC4)CC3)c12` [Compound 285] the same measures were no more than 100 nM and no more than 10 nM.
For `Cn1cnc(-c2[nH]c3nccc(N4CCN(C(=O)OC5COC5)CC4)c3c2C#N)c1` [Compound 208], the IC50 on human ALK2 R206H was no more than 100 nM; in assay [1], no more than 10 nM.
The matching figures for `CCOC(=O)N1CCN(c2ccnc3[nH]c(-c4cn(C)nc4F)cc23)CC1` [Compound 51]: 100 to 500 nM and no more than 10 nM.
The matching figures for `Cn1cc(-c2cc3c(N4CCN(C(=O)OC5CC(F)(F)C5)CC4)ccnc3[nH]2)cn1` [Compound 266]: no more than 100 nM and no more than 10 nM.
For the compound `Cn1cc(-c2[nH]c3nccc(N4CCN(C(=O)OCC(F)F)CC4)c3c2Cl)cn1` [Compound 308], the IC50 on human ALK2 R206H is no more than 100 nM; in assay [1], no more than 10 nM.
For `Cn1cc(-c2cc3c(N4CCN(C(=O)OC5COC5)CC4)ccnc3[nH]2)cn1` [Compound 90] the same measures were no more than 100 nM and no more than 10 nM.
The matching figures for `Cn1cc(-c2cc3c(N4CCN(C(=O)C5CCCCC5)CC4)ccnc3[nH]2)cn1` [Compound 134]: 100 to 500 nM and no more than 10 nM.
Consider `Cc1nc(-c2cc3c(N4CCN(C(=O)OC5CC(F)(F)C5)CC4)ccnc3[nH]2)cn1C` [Compound 325], for which the IC50 on human ALK2 R206H is no more than 100 nM; in assay [1] it was no more than 10 nM.
For `Cc1nn(C)cc1-c1cc2c(N3CCN(C(=O)[C@H]4CC[C@H](C#N)CC4)CC3)ccnc2[nH]1` [Compound 333] the same measures were 100 to 500 nM and no more than 10 nM.
On to `Cc1nc(-c2[nH]c3nccc(N4CCN(C(=O)OC5COC5)CC4)c3c2Cl)cn1C` [Compound 331], for which the figures for the IC50 (at human ALK2 R206H; in assay [1]) were no more than 100 nM and no more than 10 nM, respectively.
The matching figures for `CCOC(=O)N1CCN(c2ccnc3[nH]c(-c4cnn(C)c4)cc23)CC1` [Compound 11]: 100 to 500 nM and no more than 10 nM.
For `CC(C)N1CCC(c2ccc(-c3cc4c(N5CCN(C(=O)OC6COC6)CC5)ccnc4[nH]3)cc2)CC1` [Compound 467] the same measures were no more than 100 nM and no more than 10 nM.
As to `CCCC(C)C(=O)N1CCN(c2ccnc3[nH]c(-c4cnn(C)c4)cc23)CC1` (centres unmarked) [Compound 82], the IC50 on human ALK2 R206H was greater than 500 nM; in assay [1], no more than 10 nM.
The matching figures for `CC(C)N1CCN(c2ccc(-c3cc4c(N5CCN(C(=O)C6CC6)CC5)ccnc4[nH]3)cc2)CC1` [Compound 438]: no more than 100 nM and no more than 10 nM.
